Key:
[1] = system: prostate-specific antigen (PSA) produced by LNCaP cells; experiment: PSA produced by LNCaP cells; assay type: cell-based, human
[2] = system: LNCaP cells infected with the empty vector; experiment: In vitro growth of LNCaP vector cells in low androgen; assay type: cell-based, human; conditions: steroid-depleted
[3] = target: AR transcription complex on the promoters of PSA and KLK2 in LNCaP cells (Homo sapiens, UniProt P10275, T878A)
LNCaP-AR cells [4] = experiment: In vitro growth of LNCaP-AR cells (low androgen / bicalutamide)
AR LBD = conditions: cited from earlier work
LNCaP-AR cells [5] = experiment: Microarray of induced genes in LNCaP-AR cells; assay type: cell-based, human
[6] = system: LNCaP cells infected with the empty-vector control; experiment: Microarray of induced genes in LNCaP control cells; assay type: cell-based, human; conditions: 10 μM
[7] = system: PSA mRNA and protein expression in parental LAPC4 cells; experiment: PSA expression in parental LAPC4 cells; conditions: androgen-starved
[8] = system: PSA expression in LAPC4 cells expressing increased levels of AR; experiment: PSA expression in LAPC4 cells with increased AR; conditions: androgen-starved

Chain of AR transcription complex on the promoters of PSA and KLK2 in LNCaP cells (P10275 whole entry T878A, one chain of several): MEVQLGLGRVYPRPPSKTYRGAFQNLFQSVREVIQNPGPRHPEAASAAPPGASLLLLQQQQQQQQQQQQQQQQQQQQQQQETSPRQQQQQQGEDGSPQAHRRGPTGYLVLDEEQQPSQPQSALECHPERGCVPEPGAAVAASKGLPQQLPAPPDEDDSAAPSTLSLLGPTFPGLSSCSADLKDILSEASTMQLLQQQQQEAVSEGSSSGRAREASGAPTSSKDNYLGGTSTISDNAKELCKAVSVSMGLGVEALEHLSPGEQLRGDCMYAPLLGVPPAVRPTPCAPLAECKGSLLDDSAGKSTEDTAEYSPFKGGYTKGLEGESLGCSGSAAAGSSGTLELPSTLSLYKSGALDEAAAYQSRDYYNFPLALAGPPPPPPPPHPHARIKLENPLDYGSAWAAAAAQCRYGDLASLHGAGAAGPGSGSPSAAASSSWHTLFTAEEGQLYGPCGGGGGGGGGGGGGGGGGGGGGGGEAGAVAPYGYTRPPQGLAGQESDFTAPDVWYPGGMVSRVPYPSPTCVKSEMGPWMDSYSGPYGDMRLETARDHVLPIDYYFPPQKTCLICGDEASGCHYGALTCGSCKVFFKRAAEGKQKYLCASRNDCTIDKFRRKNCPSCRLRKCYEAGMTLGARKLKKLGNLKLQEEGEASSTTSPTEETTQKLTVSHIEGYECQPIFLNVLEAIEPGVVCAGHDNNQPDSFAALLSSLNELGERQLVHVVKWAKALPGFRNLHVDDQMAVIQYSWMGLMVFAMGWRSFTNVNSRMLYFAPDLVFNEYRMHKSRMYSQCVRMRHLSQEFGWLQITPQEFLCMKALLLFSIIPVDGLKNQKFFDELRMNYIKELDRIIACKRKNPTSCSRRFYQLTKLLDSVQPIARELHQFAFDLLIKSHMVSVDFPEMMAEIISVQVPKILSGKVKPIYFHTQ

CC1(C)C(=O)N(c2ccc(C#N)c(C(F)(F)F)c2)C(=S)N1c1ccc(N=[N+]=[N-])cc1 [Compound 5]
antagonist character ([1]; LNCaP cells, PSA): full antagonists | IC50 for PSA expression compared with bicalutamide ([1]; LNCaP cells, relative to bicalutamide): ten-fold lower | agonist and antagonist effects ([1]; initial screening and biological testing): best antagonist effects without any strong agonist effects

C[C@]1(O)CC[C@H]2[C@@H]3CCC4=CC(=O)CCC4=C3C=C[C@@]21C [Compound R1881, R1881]
concentration needed for growth in charcoal-stripped serum [2]: 100 pM | recruitment of AR and polymerase II to promoters [3]: AR and polymerase II were recruited to both promoters regardless of AR level | lower concentration supporting growth versus vector cells (LNCaP-AR cells [4]; charcoal-stripped serum, relative to vector cells): at least 80%

CC1(C)C(=O)N(c2ccc(C#N)c(C(F)(F)F)c2)C(=S)N1CCCCO [RU59063]
binding to AR LBD compared with drugs such as bicalutamide (AR LBD): more potent binders of the AR LBD

CC(O)(CS(=O)(=O)c1ccc(F)cc1)C(=O)Nc1ccc(C#N)c(C(F)(F)F)c1 (stereo not shown) [bicalutamide]
probe sets induced (LNCaP-AR cells [5]; 10 μM, 2-fold increase, P<0.05, 500 minimum expression): 48 probe sets | subset of total androgen-regulated genes induced (LNCaP-AR cells [5]; of >600 androgen-regulated probe sets): < 10% | probe sets induced [6]: no elements were significantly upregulated | effect on PSA mRNA and protein expression [7]: typical antagonist activity | effect on PSA expression [8]: functioned as an agonist | growth in the presence of the antiandrogen (LNCaP-AR cells [4]; LNCaP-AR cells): resistant

Source: patent US7718684B2, “Methods and materials for assessing prostate cancer therapies and compounds” (The Regents of the University of California, priority 2004, dated 2010)
